Measurements taken from US12637438B2, “Protoporphyrinogen oxidase inhibitors” (Enko Chem, Inc., priority 2021, dated 2026).

System: PPO dG210 mutant Tall Waterhemp (Amaranthus tuberculatus)
Assay type: in vivo
Settings: relative to Flumioxazin, Sulfentrazone, and Pyroxasulfone

Compound: C#CCN1C(=O)C(F)(F)Oc2cc(F)c(-c3c(F)c(F)c(F)c(F)c3F)cc21 [Compound 2, 2,2,7-trifluoro-6-(perfluorophenyl)-4-(prop-2-yn-1-yl)-2H-benzo[b][1,4]oxazin-3(4H)-one]
- resistant weed control, comparison in words: more effective at resistant weed control than the other commercially available herbicides
